Columns and labels:
[1] = system: mice challenged with MOG emulsion; assay: MOG35-55 induced experimental autoimmune encephalomyelitis model; assay type: in vivo, C57BL6 mice; details: oral 20 mg/kg daily
[2] = system: CD4+ T cells; assay: Immunological screening in vitro in CD4+ T cells (flow cytometry of TNFα+ and IFNγ+ cells); assay type: cell-based, C57BL/6 mice; details: 50 nanomolar, 24 h; for production of TNFα / TNF+ CD4+ T cells: anti-CD3/CD28, PMA and ionomycin last 6 h
Excerpt: Cell culture. Spleens were excised from C57BL/6 mice. Spleens were crushed between the frosted ends of microscope slides and filtered to provide a cellular suspension. Red blood cells were lysed through hypotonic lysis. Remaining cells were washed and filtered. CD4+ T cells were enriched within the suspension using magnetic sorting based negative selection. Cells were collected and plated within 96 well plates coated with anti-CD3/CD28 and cultured in the presence of NX-64-2, NX-64-3, NX-64-4, NX-64-5, or NX-64-9 at 0 or 50 nanomolar for 24 h. During the last 6 h of culture, cells were stimulated with phorbol 12-myristate-13-acetate (PMA) and ionomycin.
Immunological analysis. Cells were collected from 96 well plates and stained with a cocktail of antibodies for immunophenotyping by flow cytometry. Culture supernatant was collected and assayed for cytokine concentrations by cytometric bead array. Data was captured on a BD FACS Celesta and analyzed using FACSDiva.

[3] = system: mice challenged with DSS; assay: DSS model of colitis (acute model of IBD); assay type: in vivo; details: oral 20 mg/kg once daily
Description: DSS model. Mice were given DSS in drinking water for seven days to induce disruption of the epithelial layer. At project initiation, mice were 8 weeks of age and began dosing 24 hours after being placed on DSS. Mice were weighed and scored daily for symptoms of disease (diarrhea, rectal bleeding, rectal inflammation, overall behavior). NX-64-3 was prepared within a 0.5% methylcellulose (12-15 cP) solution. Dosage used was 20 mg/kg delivered once daily. Dosage was calculated based off mean body weights for each gender. Oral dosage was delivered by orogastric gavage of dosage in 0.2 mL volume. Flow Cytometry. Colons were collected into RPMI/FBS buffer containing collagenase (300 U/mL) and DNase (50 U/mL) for digestion. Tissues were digested for 60 minutes under stirring at 37° C. Resultant cellular suspensions were filtered through 100 μm strainers, centrifuged (300×g, 8 min), and washed in fresh RPMI. Following filtration of the resulting single cell suspensions, immune cells were purified by Percoll gradient of cell-containing 40% Percoll overlayed onto 70% Percoll solution. After centrifugation, interphase was collected and washed to obtain enriched colonic lamina propria cell fractions. Cells were labeled with mixtures of extracellular (CD45, CD3, CD4, CD8, CD19, NK1.1, F4/80, CD11b, Gr1) antibodies in a sequential live staining in 96-well plates. […]

[4] = system: OVA-induced model; assay: OVA-induced model of experimental asthma; assay type: in vivo, C57BL6 mice; details: oral 20 mg/kg daily days 14-17, day 18, flow cytometry
Description: OVA-induced model. C57BL6 mice were immunized with 10 μg of ovalbumin (OVA) in aluminum hydroxide gel by intraperitoneal injection on day 0 and 7 of the experiment. Mice were then exposed to OVA (8% w/v) by aerosolization for 25 minutes daily between days 14 and 17. Treatment with NX-64-3 (20 mg/kg) or vehicle control occurred daily between days 14 and 17 by oral gavage. Dosage was calculated based off mean body weights. Immunological analysis. Lungs were collected on day 18. Lung tissue was minced and digested in RPMI supplemented with FBS, HEPES, and calcium chloride containing 300 U/mL collagenase and 50 U/mL DNase for 45 minutes at 37° C. After filtration, red blood cells were lysed. Cells were labeled with mixtures of extracellular (CD45, CD3, CD4, CD8, MHCII, CD11b, CD11c, SiglecF, Ly6C) and intracellular (IL10) antibodies in a sequential live staining in 96-well plates in preparation for flow cytometry. Data was captured on a BD FACS Celesta and analyzed using FACSDiva.

[5] = day 18, RNA normalized to beta-actin

SMILES | recovery from neurological deficiencies [1] | expression of II1b in spinal cord [1, 5] | expression of Tnf in spinal cord [1, 5] | disease activity index ([1]; scored 0-4 daily) | production of TNFα / TNF+ CD4+ T cells [2] | production of IFNγ / IFNγ+ CD4+ T cells, in words ([2]; relative to vehicle control) | severity of macroscopic lesions (colon) ([3]; 7 days of DSS) | presence of neutrophils in the colonic lamina propria ([3]; day 7, flow cytometry) | percentage of IL10+CD4+ T cells within the lung [4] | percentage of eosinophils within the lung [4]
O=c1nc(Cc2nc(C3=CCCCO3)no2)[nH]c2ccc(-c3ccc(O)nc3)cc12 [NX-64-3, 2-((3-(3,4-dihydro-2H-pyran-6-yl)-1,2,4-oxadiazol-5-yl)methyl)-6-(6-hydroxypyridin-3-yl)quinazolin-4(1H)-one] | accelerated | reduced | reduced | reduced | significant reduction | greatest magnitude of response | decreased | decreased | increased | reduced
Cn1cc(-c2ccc3[nH]c(Cc4nc(C5=CCCCO5)no4)nc(=O)c3c2)cn1 [NX-64-4, 2-((3-(3,4-dihydro-2H-pyran-6-yl)-1,2,4-oxadiazol-5-yl)methyl)-6-(1-methyl-1H-pyrazol-4-yl)quinazolin-4(1H)-one] |  |  |  |  | significant reduction |  |  |  |  | 
Cn1cc(-c2ccc3[nH]c(Cc4nc(-c5cc(=O)cc[nH]5)no4)nc(=O)c3c2)cn1 [NX-64-9, 2-((3-(4-oxo-1H-pyridin-2-yl)-1,2,4-oxadiazol-5-yl)methyl)-6-(1-methyl-1H-pyrazol-4-yl)quinazolin-4(1H)-one] |  |  |  |  | significant reduction |  |  |  |  | 
